In brackets after ≈: the same amount, converted by molar mass. Where two headings read alike, the source gives them in different places. Marks after values point to notes of the source that are not given here. Starred links: 1 amine or outer side, 2 acyl side, 3 side chain; linkers in the order of their positions; H or OH if unused. Positions of bridges follow the written chain, without caps; N, C: chain ends. Non-standard residues stand in square brackets, D forms with d. Residues, ends and D or L forms follow the SMILES beside them. Chains are numbered I, II in the order given. Actinocin(9to1) = Cc1c2oc3c(C)ccc(C(=O)[*:1])c3nc-2c(C(=O)[*:2])c(N)c1=O; NMeV = CN[C@H](C(=O)O)C(C)C; Sar = CNCC(=O)O
What was measured:
[1] = clinical drugs, from reference (12); cited from earlier work
[2] = test system: HeLa cell lines (from a human uterine cervix carcinoma); test: Cytostatic and cytocidal activity in vitro, HeLa cell cultures; assay type: cell-based
Experimental: (§1) The cytostatic and cytocidal activity of BBPh has been evaluated employing HeLa cell lines (from a human uterine cervix carcinoma), ADLD-clon (from a human malignant melanona) and a semicontinuos LMMB cell line (from normal human tonsilar fibroblasts).
(§2) In order to perform both "in vitro" and "in vivo" experiments a concentrated stock solution of BBPh in dimethyl sulfoxide (DMSO) was prepared. From it increasing diluted solutions in McCoy's R5aI grown medium supplemented with 5% human serum, 5% calf serum, 5% fetal bovine serum, 100 IU/mL penicillin, 100 ug/mL streptomycin and 16 ug/mL gentamycin were obtained.
(§3) Serial dilutions of BBPh and the solvent were assayed in cultures seeded 24 hours before on 96-well "Microtiter" plates. The seeding was carried out by depositing 200 µL of cell suspension in growth medium in each well, adjusted to 3 x 10^5/mL HeLa cells, 9 x 10^5/mL ADLD-clon cells or 4 x 10^5/mL LMMB cells.
(§4) The plates with different concentrations of BBPh and control solutions were incubated at 37°C in a humidily saturated air containing 5% CO2.
(§5) Then the plates were fixed and stained to stimate the effects of BBPh under the conditions described by Alvarez (1986) (11) taken Adriamycin as antitumoral compound of reference. […]

[3] = test system: LMMB cell line (from normal human tonsilar fibroblasts); test: Cytostatic and cytocidal activity in vitro, LMMB normal cell cultures; assay type: cell-based; conditions: Fibroblast
Experimental: as §1, §2, §3, §4, §5

[4] = test system: ADLD-clon (from a human malignant melanona); test: Cytostatic and cytocidal activity in vitro, ADLD-clon cell cultures; assay type: cell-based
Experimental: as §1, §2, §3, §4, §5

[5] = test system: Ehrlich ascites cancer cells; test: In vivo antitumoral activity, subcutaneous transplant of Ehrlich ascites cancer cells in mice; set-up: species or system swiss mice
Experimental: Five groups of six 2-month male swiss mice weighing 25 grams were disposed. Each animal received a transplant of 10^5 Ehrlich ascites cancer cells by the subcutaneous route in the interscapular region. Fourteen days later, when the tumors were evident and measured more than 3 millimeter in diameter, the animals were submitted to the different treatments.
Group 1 received a first intraperitoneal dose of 300 µL of DMSO followed by equal subcutaneous doses, the next three consecutive days.
Group 2 received a single intraperitoneal dose of 100 µg of BBPh solubilized in 300 µL of DMSO, followed by equal subcutaneous doses the next three consecutive days.
Group 3 received a single intraperitoneal dose of 500 µg of BBPh in 300 µL of DMSO.
Group 4 received a single intraperitoneal dose of 1.000 µg of BBPh in 300 µL of DMSO.
Group 5 received a single subcutaneous dose of 4.000 µg BBPh in an oily solution.

[6] = 50 per 100 lethal dose (LD50) of BBPh and toxicity in mice; assay type: in vivo; conditions: DMSO as solvent
[7] = test system: Trichomonas vaginalis (Srain G); test: microbe, parasite or virus in culture; conditions: for MCC: read-out: Trichomonacidal activity MCC; for MIC: read-out: Trichomonacidal activity MIC
Experimental: The cultures of the strains of Trichomonas vaginalis (Srain G) used as experimental model were grown in Diamond Medium (TYM) without agar (100.000 organisms/mL). […] Minimal inhibition concentration (MIC) and Minimal cytocidal concentration (MCC) were established in accordance with the definitions proposed by Escario et al. (19).

pKa of BBPh = assay type: physicochemical
Description: Some anticancer drugs such as mitomycin C and antinomycin D which interact with nucleic acids have shown activity against Trypanosoma cruzi (16). […] Following a similar behaviour the 1,4-bis(buthylamino)benzo[g] phthalazine (BBPh) which is able to form 1,4-bis(buthylamino) benzo[g]phthalazinium cations at physiological PH (PKa of BBPh = 8.6) and is a potential intercalating agent has shown both, antineoplasic and trypanosomicide activities.

T. cruzi = test: Trypanosomicide activity in vitro in infected NMRI mice blood; assay type: cell-based, Trypanosoma cruzi; conditions: 24 h at 4°C; for N° Tryp/mL: controls Cd 298, Ct 247
[8] = group 5: BBPh in oily solution 1 x 4.0 mg s.c. (160 mg/kg)
[9] = overall dose 40 mg/Kg: single i.p. dose of 1.0 mg in DMSO

Compound: Cc1c2oc3c(C)ccc(C(=O)N[C@@H]4C(=O)N[C@H](C(C)C)C(=O)N5CCC[C@H]5C(=O)N(C)CC(=O)N(C)[C@@H](C(C)C)C(=O)O[C@@H]4C)c3nc-2c(C(=O)N[C@@H]2C(=O)N[C@H](C(C)C)C(=O)N3CCC[C@H]3C(=O)N(C)CC(=O)N(C)[C@@H](C(C)C)C(=O)O[C@@H]2C)c(N)c1=O [Actinomicin D] (I: T[dV]P[Sar][NMeV] / II: T[dV]P[Sar][NMeV]; ester I:1-I:C, II:1-II:C; linker I:N-II:N via Actinocin(9to1))
- LD50 [1]: 0.095 mg/kg

Compound: COc1cccc2c1C(=O)c1c(O)c3c(c(O)c1C2=O)C[C@@](O)(C(=O)CO)C[C@@H]3O[C@H]1C[C@H](N)[C@H](O)[C@H](C)O1 [Adriamycin, reference compound]
- IC50 ([2]; read-out: ID50): 0.33 µg/mL (≈ 0.607 µM)
- IC50 ([3]; read-out: ID50): 0.07 µg/mL (≈ 0.129 µM)
- IC50 ([4]; read-out: ID50): 0.33 µg/mL (≈ 0.607 µM)

Compound: CCCCNc1nnc(NCCCC)c2cc3ccccc3cc12 [BBPh, 1,4-bis(n-butylamino)benzo[g]phthalazine]
- IC50 ([2]; concentration producing death or growth inhibition of 50% of the cells, read-out: ID50 (the source's name)): 0.67 µg/mL (≈ 2.08 µM)
- T/S ([5]; group 2: BBPh in DMSO 1 x 0.1 mg i.p. + 3 x 0.1 mg s.c.): 6/5
- SURVIVAL(DAYS) MST ([5]; group 2: BBPh in DMSO 1 x 0.1 mg i.p. + 3 x 0.1 mg s.c., DMSO control 59): 84 days
- SURVIVAL(DAYS) MST [5, 8]: 86 days
- T/S [5, 8]: 5/5
- Toxic death ([5]; overall dose 16 mg/Kg: 0.1 mg i.p. then similar s.c. doses next three days, DMSO): 1/6
- T/C (%) ([5]; overall dose 16 mg/Kg: 0.1 mg i.p. then similar s.c. doses next three days, DMSO, active when > 125%): 142^f %
- TST ([5]; overall dose 16 mg/Kg: 0.1 mg i.p. then similar s.c. doses next three days, DMSO, control 59): 84 days
- Toxic death ([5]; overall dose 20 mg/Kg: single i.p. dose of 0.5 mg in DMSO): 4/6
- T/C (%) ([5]; overall dose 20 mg/Kg: single i.p. dose of 0.5 mg in DMSO, active when > 125%): 161^f %
- TST ([5]; overall dose 20 mg/Kg: single i.p. dose of 0.5 mg in DMSO, control 59): 96 days
- T/C (%) [5, 9]: Toxic
- TST [5, 9]: 1 days
- Toxic death [5, 9]: 6/6
- IC50 ([3]; LMMB normal cells, concentration producing death or growth inhibition of 50% of the cells, read-out: ID50 (the source's name)): 1.08 µg/mL (≈ 3.35 µM)
- toxicity ([6]; i.p., single dose of 20 mg/Kg): toxic
- LD50 ([6]; mouse, in vivo, ip, BBPh): 12 mg/kg
- MCC [7]: 10 to 25 µg/mL
- MIC [7]: 5 to 10 µg/mL (≈ 15.5 to 31 µM)
- IC50 ([4]; ADLD-clon, concentration producing death or growth inhibition of 50% of the cells, read-out: ID50 (the source's name)): 0.67 µg/mL (≈ 2.08 µM)
- pKa (pKa of BBPh): 8.6
- N° Tryp/mL (T. cruzi; BBPh 75 µg/mL): 0 Tryp/mL
- N° Tryp/mL (T. cruzi; BBPh 125 µg/mL): 0 Tryp/mL
- N° Tryp/mL (T. cruzi; BBPh 250 µg/mL): 0 Tryp/mL
- N° Tryp/mL (T. cruzi; BBPh 500 µg/mL): 0 Tryp/mL
- N° Tryp/mL (T. cruzi; BBPh 1000 µg/mL): 0 Tryp/mL
- parasitemia (T. cruzi; all samples, 1000 to 75 ug/mL): negative parasitemia

Compound: COc1cccc2c1C(=O)c1c(O)c3c(c(O)c1C2=O)C[C@@](O)(C(C)=O)C[C@@H]3O[C@H]1C[C@H](N)[C@H](O)[C@H](C)O1 [Daunomycin]
- LD50 [1]: 9.2 mg/kg

Compound: Cc1ncc([N+](=O)[O-])n1CCO [Metronidazole, reference compound]
- MCC [7]: 8 µg/mL
- MIC [7]: 4 to 8 µg/mL (≈ 23.4 to 46.7 µM)

Compound: CC[C@]1(O)C[C@H]2CN(CCc3c([nH]c4ccccc34)[C@@](C(=O)OC)(c3cc4c(cc3OC)N(C=O)[C@H]3[C@@](O)(C(=O)OC)[C@H](OC(C)=O)[C@]5(CC)C=CCN6CC[C@]43[C@@H]65)C2)C1 [Vincristine]
- LD50 [1]: 4.5 mg/kg

— patent EP0440787B1, “COMPOUNDS OF 1,4-BIS(AMINO)BENZO(G)PHTHALAZENE” (CONSEJO SUPERIOR DE INVESTIGACIONES CIENTIFICAS, priority 1989, dated 1990)
